Measured values: patent US12077503B2, “Substituted cyclic amides and their use as herbicides” (FMC CORPORATION, priority 2015, dated 2024)

Assays:
Type in all cases: in vivo
Kochia (Kochia scoparia) [1] = experiment: Test A preemergence; conditions: Bassia scoparia, pre-emergence, 240 h, 0 to 100 scale where 0 is no effect and 100 is complete control, read-out: Kochia plant response rating
Method in brief: (§1)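 Preemergence soil spray on seeded pots or post-emergence spray on 1–2 leaf plants, in loam–sand blend. Greenhouse ~10 d. Visual rating 0–100 against untreated plants.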

[2] = system: barnyardgrass (Echinochloa crus-galli); experiment: Test A preemergence; conditions: Echinochloa crus-galli, pre-emergence, 240 h, 0 to 100 scale where 0 is no effect and 100 is complete control, read-out: Barnyardgrass plant response rating
Method in brief: as §1

[3] = system: giant foxtail (Setaria faberii); experiment: Test A preemergence; conditions: Setaria faberi, pre-emergence, 240 h, 0 to 100 scale where 0 is no effect and 100 is complete control, read-out: Foxtail, Giant plant response rating
Method in brief: as §1

[4] = system: pigweed (Amaranthus retroflexus); experiment: Test A preemergence; conditions: Amaranthus retroflexus, pre-emergence, 240 h, 0 to 100 scale where 0 is no effect and 100 is complete control, read-out: Pigweed plant response rating
[5] = system: ragweed (common ragweed, Ambrosia elatior); experiment: Test A preemergence; conditions: Ambrosia artemisiifolia, pre-emergence, 240 h, 0 to 100 scale where 0 is no effect and 100 is complete control, read-out: Ragweed plant response rating
Method in brief: as §1

[6] = system: ryegrass, Italian (Italian ryegrass, Lolium multiflorum); experiment: Test A preemergence; conditions: Lolium multiflorum, pre-emergence, 240 h, 0 to 100 scale where 0 is no effect and 100 is complete control, read-out: Ryegrass, Italian plant response rating
Method in brief: as §1

[7] = system: Galium (catchweed bedstraw, Galium aparine); experiment: Test A postemergence; conditions: Galium, post-emergence, 240 h, Postemergence, read-out: Galium plant response rating (0 to 100 scale)
Method in brief: as §1

Kochia (Kochia scoparia) [8] = experiment: Test A postemergence; conditions: Bassia scoparia, post-emergence, 240 h, Postemergence, read-out: Kochia plant response rating (0 to 100 scale)
Method in brief: as §1

[9] = system: barnyardgrass (Echinochloa crus-galli); experiment: Test A postemergence; conditions: Echinochloa crus-galli, post-emergence, 240 h, Postemergence
Method in brief: as §1

[10] = system: blackgrass (Alopecurus myosuroides); experiment: Test A postemergence; conditions: Alopecurus myosuroides, post-emergence, 240 h, Postemergence, read-out: Blackgrass plant response rating (0 to 100 scale)
Method in brief: as §1

corn (Zea mays) = experiment: Test A postemergence; conditions: Zea mays, post-emergence, 240 h, Postemergence, read-out: Corn plant response rating (0 to 100 scale)
Method in brief: as §1

[11] = system: giant foxtail (Setaria faberii); experiment: Test A postemergence; conditions: Setaria faberi, post-emergence, 240 h, Postemergence, read-out: Foxtail, Giant plant response rating (0 to 100 scale)
Method in brief: as §1

[12] = system: pigweed (Amaranthus retroflexus); experiment: Test A postemergence; conditions: Amaranthus retroflexus, post-emergence, 240 h, Postemergence, read-out: Pigweed plant response rating (0 to 100 scale)
Method in brief: as §1

[13] = system: ragweed (common ragweed, Ambrosia elatior); experiment: Test A postemergence; conditions: Ambrosia artemisiifolia, post-emergence, 240 h, Postemergence, read-out: Ragweed plant response rating (0 to 100 scale)
Method in brief: as §1

[14] = system: ryegrass, Italian (Italian ryegrass, Lolium multiflorum); experiment: Test A postemergence; conditions: Lolium multiflorum, post-emergence, 240 h, Postemergence, read-out: Ryegrass, Italian plant response rating (0 to 100 scale)
Method in brief: as §1

[15] = system: wheat (Triticum aestivum); experiment: Test A postemergence; conditions: Triticum aestivum, post-emergence, 240 h, Postemergence, read-out: Wheat plant response rating (0 to 100 scale)
Method in brief: as §1

[16] = system: barnyardgrass (Echinochloa crus-galli); experiment: Test B flooded paddy test; conditions: Echinochloa crus-galli, 250 g ai/ha, Flood; 0 to 100 scale where 0 is no effect and 100 is complete control; read-out: Barnyardgrass plant response rating
Method in brief: (§2)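 Visual ratings (0 none to 100 complete control) are relative to untreated plants, taken 13–15 d after treatment in a greenhouse. Test material went straight into floodwater standing 3 cm above the soil, kept constant, on plants at the 2-leaf stage.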

[17] = system: ducksalad (Heteranthera limosa); experiment: Test B flooded paddy test; conditions: Heteranthera limosa, 250 g ai/ha, Flood; 0 to 100 scale where 0 is no effect and 100 is complete control; read-out: Ducksalad plant response rating
Method in brief: as §2

rice (Oryra sativa) = experiment: Test B flooded paddy test; conditions: Oryza sativa, 250 g ai/ha, Flood; 0 to 100 scale where 0 is no effect and 100 is complete control; read-out: Rice plant response rating
Method in brief: as §2

[18] = system: sedge, umbrella (small-flower umbrella sedge, Cyperus difformis); experiment: Test B flooded paddy test; conditions: Cyperus difformis, 250 g ai/ha, Flood; 0 to 100 scale where 0 is no effect and 100 is complete control; read-out: Sedge, Umbrella plant response rating
Method in brief: as §2

[19] = 125 g ai/ha, preemergence, visual injury rating, approximately 10 d
[20] = 125 g ai/ha, visual rating about 10 d after treatment
[21] = 31 g ai/ha, 0 is no effect, 100 is complete control

CN1C[C@H](c2csc3c2CCOC3)[C@@H](C(=O)Nc2cccc(F)c2F)C1=O [Compound 1268]
pest or weed control at 31 g/ha (Kochia (Kochia scoparia) [1]; 31 g ai/ha, Preemergence): 0%
pest or weed control at 125 g/ha (Kochia (Kochia scoparia) [1]; [19]): 0%
pest or weed control at 31 g/ha ([2]; 31 g ai/ha, Preemergence): 90%
pest or weed control at 125 g/ha [2, 19]: 90%
pest or weed control at 31 g/ha ([3]; 31 g ai/ha, Preemergence): 70%
pest or weed control at 125 g/ha [3, 19]: 90%
pest or weed control at 31 g/ha ([4]; 31 g ai/ha, Preemergence): 0%
pest or weed control at 125 g/ha [4, 19]: 0%
pest or weed control at 31 g/ha ([5]; 31 g ai/ha, Preemergence): 0%
pest or weed control at 125 g/ha [5, 19]: 0%
pest or weed control at 31 g/ha ([6]; 31 g ai/ha, Preemergence): 0%
pest or weed control at 125 g/ha [6, 19]: 20%
pest or weed control at 125 g/ha [7, 20]: 0%
pest or weed control at 31 g/ha [7, 21]: 0%
pest or weed control at 125 g/ha (Kochia (Kochia scoparia) [8]; [20]): 0%
pest or weed control at 31 g/ha (Kochia (Kochia scoparia) [8]; [21]): 0%
pest or weed control at 125 g/ha ([9]; 125 g ai/ha, visual rating about 10 d after treatment, read-out: Barnyardgrass plant response rating (0 to 100 scale, 0 no effect, 100 complete control)): 90%
pest or weed control at 31 g/ha ([9]; 31 g ai/ha, 0 is no effect, 100 is complete control, read-out: Barnyardgrass plant response rating (0 to 100 scale)): 80%
pest or weed control at 125 g/ha [10, 20]: 0%
pest or weed control at 31 g/ha [10, 21]: 0%
plant injury at 125 g/ha (corn (Zea mays); [20]): 0%
plant injury at 31 g/ha (corn (Zea mays); [21]): 0%
pest or weed control at 125 g/ha [11, 20]: 90%
pest or weed control at 31 g/ha [11, 21]: 50%
pest or weed control at 125 g/ha [12, 20]: 0%
pest or weed control at 31 g/ha [12, 21]: 0%
pest or weed control at 125 g/ha [13, 20]: 0%
pest or weed control at 31 g/ha [13, 21]: 0%
pest or weed control at 125 g/ha [14, 20]: 20%
pest or weed control at 31 g/ha [14, 21]: 0%
plant injury at 125 g/ha [15, 20]: 0%
plant injury at 31 g/ha [15, 21]: 0%
pest or weed control at 250 g/ha [16]: 85%
pest or weed control at 250 g/ha [17]: 95%
pest or weed control at 250 g/ha (rice (Oryra sativa)): 20%
pest or weed control at 250 g/ha [18]: 0%
